ChEMBL document CHEMBL4837244 (ACS Med Chem Lett, 2021)

Columns and labels:
Type in all cases: ADME, Microsome
[1] = Metabolic stability in human liver microsomes assessed as parent compound remaining at 0.1 uM in presence of NADPH by LC-MS/MS analysis
[2] = Metabolic stability in mouse liver microsomes assessed as parent compound remaining at 0.1 uM in presence of NADPH by LC-MS/MS analysis; details: read-out: Stabilty
[3] = Metabolic stability in rat liver microsomes assessed as parent compound remaining at 0.1 uM in presence of NADPH by LC-MS/MS analysis; details: read-out: Stabilty

SMILES | Stabilty [1] | remaining at 0.1 µM [2] [%] | remaining at 0.1 µM [3] [%]
CCOC(=O)c1ccc(CCN2CCC(Nc3nc4ccccc4n3Cc3ccc(C#N)cc3)CC2)cc1 | Unstable | < 45 | < 45
O=C(c1ccc(CCN2CCC(Nc3nc4ccccc4n3Cc3ccc(F)cc3)CC2)cc1)N1CCNCC1 | Unstable | < 45 | < 45
N#Cc1ccc(CCN2CCC(Nc3nc4ccccc4n3Cc3ccc(C(F)(F)F)nc3)CC2)cc1 | Unstable | < 45 | < 45
N#Cc1ccc(Cn2c(NC3CCN(CCc4ccc(C(F)(F)F)cc4)CC3)nc3ccccc32)cc1 | Unstable | < 45 | < 45
N#Cc1ccc(CCN2CCC(Nc3nc4ccccc4n3Cc3ccc(C#N)c(F)c3)CC2)cc1 | Unstable | < 45 | < 45
